In patent US20260022142A1, “MACROCYCLIC IMMUNOMODULATORS” (Bristol-Myers Squibb Company, priority 2022, published 2026):
pIC50: −log10 of the molar value. Numbered stars: 1 amine (or outer) side, 2 acyl side, 3 side chain; on linkers, the order of the positions; unused ones are H or OH. Bridge positions count the residues as written; N and C are the ends. Square brackets hold non-standard residues; d marks the D form. Peptide text beside a SMILES is read from it. * marks the point of attachment. Phe(4-CH2CH2COOH) = N[C@@H](Cc1ccc(CCC(=O)O)cc1)C(=O)O; Bip = N[C@@H](Cc1ccc(-c2ccccc2)cc1)C(=O)O; X10 = O=C([C@H](Cc1cc[nH]c1)N[*:1])[*:2]; Phe(3-Me) = Cc1cccc(C[C@H](N)C(=O)O)c1; Cha = N[C@@H](CC1CCCCC1)C(=O)O; Cit = NC(=O)NCCC[C@H](N)C(=O)O; Carboxymethyl = O=C(O)C*; Orn = NCCC[C@H](N)C(=O)O; dNMeA = CN[C@H](C)C(=O)O; Aun = NCCCCCCCCCCC(=O)O; Dab = NCC[C@H](N)C(=O)O; Dap = NC[C@H](N)C(=O)O

Target: T1, PD-1/PD-L1 interaction (PE-labeled human PD-L1-Ig binding to Jurkat cell line over-expressing human PD-1) (Homo sapiens, UniProt Q15116)
T1 construct: expressed in transfected cells; host or cells: Jurkat
Test: Jurkat-PD-1 Cell Binding High-Content Screening Assay (CBA)
Assay type: cell-based
Conditions: Jurkat cell line over-expressing human PD-1; PE-labeled PD-L1-Ig 20 nM final; read-out: Jurkat hPD1-PDL1 IC50
Method in brief: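 Binding of fluorescent PD-L1-Ig (20 nM final) to Jurkat-PD-1 cells was measured by automated imaging after 1 h, following a 2 h compound pre-treatment at 37° C.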

T1 sequence (Q15116 25-288): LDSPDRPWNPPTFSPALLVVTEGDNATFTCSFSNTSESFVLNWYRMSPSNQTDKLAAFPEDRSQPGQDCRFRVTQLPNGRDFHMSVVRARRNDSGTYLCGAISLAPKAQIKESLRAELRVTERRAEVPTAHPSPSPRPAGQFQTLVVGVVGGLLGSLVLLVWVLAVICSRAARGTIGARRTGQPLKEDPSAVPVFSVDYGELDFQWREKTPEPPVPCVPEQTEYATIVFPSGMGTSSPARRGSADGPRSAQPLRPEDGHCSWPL

| Structure (SMILES) | pIC50 |
| --- | --- |
| Cc1cccc(C[C@@H]2NC(=O)[C@H](CC(=O)O)NC(=O)[C@H](Cc3ccc(OCC(=O)O)cc3)NC(=O)[C@H](CCCNC(=N)N)NC(=O)CSC[C@@H](C(=O)N[C@@H](CCCN)C(=O)NCCCCCCCCCCC(=O)O)NC(=O)[C@H](CCC(N)=O)NC(=O)[C@H](C(C)C)NC(=O)[C@H](CC3CCCCC3)NC(=O)[C@H](CCN)NC(=O)[C@@H](CC(C)C)NC(=O)[C@H](CCN)NC(=O)[C@H](CCCNC(N)=O)NC(=O)[C@H](Cc3ccc(-c4ccccc4)cc3)NC(=O)[C@H](C(C)C)NC2=O)c1 [Compound 2798] ({CH2CO}-RY(Carboxymethyl)D[Phe(3-Me)]V[Bip][Cit][Dab][dL][Dab][Cha]VQC[Orn][Aun]-OH; thioether N-14) | 8.15 |
| Cc1cccc(C[C@@H]2NC(=O)[C@H](CC(=O)O)NC(=O)[C@H](Cc3ccc(OCC(=O)O)cc3)NC(=O)[C@H](CCCNC(=N)N)NC(=O)CSC[C@@H](C(=O)N[C@@H](CCCN)C(=O)NCCCCCCCCCCC(=O)O)NC(=O)[C@@H](CCC(N)=O)NC(=O)[C@H](C(C)C)NC(=O)[C@H](CC3CCCCC3)NC(=O)[C@H](CCN)NC(=O)[C@@H](CC(C)C)NC(=O)[C@H](CCN)NC(=O)[C@H](CCCNC(N)=O)NC(=O)[C@H](Cc3ccc(-c4ccccc4)cc3)NC(=O)[C@H](C(C)C)NC2=O)c1 [Compound 2799] ({CH2CO}-RY(Carboxymethyl)D[Phe(3-Me)]V[Bip][Cit][Dab][dL][Dab][Cha]V[dQ]C[Orn][Aun]-OH; thioether N-14) | 7.70 |
| Cc1cccc(C[C@@H]2NC(=O)[C@H](CC(=O)O)NC(=O)[C@H](Cc3ccc(O)cc3)NC(=O)[C@H](CC(N)=O)NC(=O)CSC[C@@H](C(=O)N[C@@H](CCCCN)C(=O)NCCCCCCCCCCC(=O)O)NC(=O)[C@H](CN)NC(=O)[C@H](C(C)C)NC(=O)[C@H](CC(C)C)NC(=O)[C@H](CCN)NC(=O)[C@@H](CC(C)C)NC(=O)[C@H](CCCN)NC(=O)[C@H](CCCNC(N)=O)NC(=O)[C@H](Cc3ccc(-c4ccccc4)cc3)NC(=O)[C@H](C(C)C)NC2=O)c1 [Compound 2800] ({CH2CO}-NYD[Phe(3-Me)]V[Bip][Cit][Orn][dL][Dab]LV[Dap]CK[Aun]-OH; thioether N-14) | 7.07 |
| CC(C)C[C@H]1NC(=O)[C@H](CCCN)NC(=O)[C@H](C(C)C)NC(=O)[C@H](Cc2ccc(-c3ccccc3)cc2)NC(=O)[C@H](C(C)C)NC(=O)[C@H](Cc2c[nH]c3ccccc23)NC(=O)[C@H](CC(=O)O)NC(=O)[C@H](Cc2ccc(OCC(=O)O)cc2)NC(=O)[C@H](CN)NC(=O)CSC[C@@H](C(=O)N[C@@H](CCCCN)C(=O)NCCCCCCCCCCC(=O)O)NC(=O)[C@H](CN)NC(=O)[C@H](C(C)C)NC(=O)[C@H](CC2CCCCC2)NC(=O)[C@H](Cc2cc[nH]c2)NC1=O [Compound 2801] ({CH2CO}-[Dap]Y(Carboxymethyl)DWV[Bip]V[Orn][dL][X10][Cha]V[Dap]CK[Aun]-OH; thioether N-14) | 6.48 |
| Cc1cccc(C[C@@H]2NC(=O)[C@H](CC(=O)O)NC(=O)[C@H](Cc3ccc(OCC(=O)O)cc3)NC(=O)[C@H](CCCNC(=N)N)NC(=O)CSC[C@@H](C(=O)N[C@@H](CCCCN)C(=O)NCCCCCCCCCCC(=O)O)NC(=O)[C@H](CN)NC(=O)[C@H](C(C)C)NC(=O)[C@H](CC3CCCCC3)NC(=O)[C@H](CCN)NC(=O)[C@@H](CC(C)C)NC(=O)[C@H](CCN)NC(=O)[C@H](CCCNC(N)=O)NC(=O)[C@H](Cc3ccc(-c4ccccc4)cc3)NC(=O)[C@H](C(C)C)NC2=O)c1 [Compound 2802] ({CH2CO}-RY(Carboxymethyl)D[Phe(3-Me)]V[Bip][Cit][Dab][dL][Dab][Cha]V[Dap]CK[Aun]-OH; thioether N-14) | 7.81 |
| Cc1cccc(C[C@@H]2NC(=O)[C@H](CC(=O)O)NC(=O)[C@H](Cc3ccc(O)cc3)NC(=O)[C@H](CC(N)=O)NC(=O)CSC[C@@H](C(=O)N[C@@H](CCCCN)C(=O)NCCCCCCCCCCC(=O)O)NC(=O)[C@H](CCCN)NC(=O)[C@H](C(C)C)NC(=O)[C@H](CC(C)C)NC(=O)[C@H](CCN)NC(=O)[C@@H](CC(C)C)NC(=O)[C@H](CCCN)NC(=O)[C@H](CCCNC(N)=O)NC(=O)[C@H](Cc3ccc(-c4ccccc4)cc3)NC(=O)[C@H](C(C)C)NC2=O)c1 [Compound 2803] ({CH2CO}-NYD[Phe(3-Me)]V[Bip][Cit][Orn][dL][Dab]LV[Orn]CK[Aun]-OH; thioether N-14) | 7.13 |
| CC(C)C[C@H]1NC(=O)[C@H](CCCN)NC(=O)[C@H](C(C)C)NC(=O)[C@H](Cc2ccc(-c3ccccc3)cc2)NC(=O)[C@H](C(C)C)NC(=O)[C@H](Cc2c[nH]c3ccccc23)NC(=O)[C@H](CC(=O)O)NC(=O)[C@H](Cc2ccc(OCC(=O)O)cc2)NC(=O)[C@H](CN)NC(=O)CSC[C@@H](C(=O)N[C@@H](CCCCN)C(=O)NCCCCCCCCCCC(=O)O)NC(=O)[C@H](CCCN)NC(=O)[C@H](C(C)C)NC(=O)[C@H](CC2CCCCC2)NC(=O)[C@H](Cc2c[nH]cn2)NC1=O [Compound 2804] ({CH2CO}-[Dap]Y(Carboxymethyl)DWV[Bip]V[Orn][dL]H[Cha]V[Orn]CK[Aun]-OH; thioether N-14) | 7.29 |
| Cc1cccc(C[C@@H]2NC(=O)[C@H](CC(=O)O)NC(=O)[C@H](Cc3ccc(OCC(=O)O)cc3)NC(=O)[C@H](CCCNC(=N)N)NC(=O)CSC[C@@H](C(=O)N[C@@H](CCCCN)C(=O)NCCCCCCCCCCC(=O)O)NC(=O)[C@H](CCCN)NC(=O)[C@H](C(C)C)NC(=O)[C@H](CC3CCCCC3)NC(=O)[C@H](CCN)NC(=O)[C@@H](CC(C)C)NC(=O)[C@H](CCN)NC(=O)[C@H](CCCNC(N)=O)NC(=O)[C@H](Cc3ccc(-c4ccccc4)cc3)NC(=O)[C@H](C(C)C)NC2=O)c1 [Compound 2805] ({CH2CO}-RY(Carboxymethyl)D[Phe(3-Me)]V[Bip][Cit][Dab][dL][Dab][Cha]V[Orn]CK[Aun]-OH; thioether N-14) | 8.00 |
| Cc1cccc(C[C@@H]2NC(=O)[C@H](CC(=O)O)NC(=O)[C@H](Cc3ccc(OCC(=O)O)cc3)NC(=O)[C@H](CN)NC(=O)CSC[C@@H](C(=O)N[C@H](CO)C(=O)N[C@@H](CCC(=O)O)C(=O)NCCCCCCCCCCC(=O)O)NC(=O)[C@H]([C@@H](C)O)NC(=O)[C@H](C(C)C)NC(=O)[C@H](CC3CCCCC3)NC(=O)[C@H](CCN)NC(=O)[C@@H](CC(C)C)NC(=O)[C@H](CCCN)NC(=O)[C@H](CCCNC(N)=O)NC(=O)[C@H](Cc3ccc(-c4ccccc4)cc3)NC(=O)[C@H](C(C)C)NC2=O)c1 [Compound 2807] ({CH2CO}-[Dap]Y(Carboxymethyl)D[Phe(3-Me)]V[Bip][Cit][Orn][dL][Dab][Cha]VTC[dS]E[Aun]-OH; thioether N-14) | 7.78 |
| Cc1cccc(C[C@@H]2NC(=O)[C@H](CC(=O)O)NC(=O)[C@H](Cc3ccc(OCC(=O)O)cc3)NC(=O)[C@H](CN)NC(=O)CSC[C@@H](C(=O)N(C)[C@H](C)C(=O)N[C@@H](CCC(=O)O)C(=O)NCCCCCCCCCCC(=O)O)NC(=O)[C@H]([C@@H](C)O)NC(=O)[C@H](C(C)C)NC(=O)[C@H](CC3CCCCC3)NC(=O)[C@H](CCN)NC(=O)[C@@H](CC(C)C)NC(=O)[C@H](CCCN)NC(=O)[C@H](CCCNC(N)=O)NC(=O)[C@H](Cc3ccc(-c4ccccc4)cc3)NC(=O)[C@H](C(C)C)NC2=O)c1 [Compound 2809] ({CH2CO}-[Dap]Y(Carboxymethyl)D[Phe(3-Me)]V[Bip][Cit][Orn][dL][Dab][Cha]VTC[dNMeA]E[Aun]-OH; thioether N-14) | 6.74 |
| Cc1cccc(C[C@@H]2NC(=O)[C@H](CC(=O)O)NC(=O)[C@H](Cc3ccc(CCC(=O)O)cc3)NC(=O)[C@H](CN)NC(=O)CSC[C@@H](C(=O)N[C@@H](CCN)C(=O)N[C@@H](CO)C(=O)NCCCCCCCCCCC(=O)O)NC(=O)[C@H]([C@@H](C)O)NC(=O)[C@H](C(C)C)NC(=O)[C@H](CC3CCCCC3)NC(=O)[C@H](CCN)NC(=O)[C@@H](CC(C)C)NC(=O)[C@H](CCCN)NC(=O)[C@H](CCCNC(N)=O)NC(=O)[C@H](Cc3ccc(-c4ccccc4)cc3)NC(=O)[C@H](C(C)C)NC2=O)c1 [Compound 2811] ({CH2CO}-[Dap][Phe(4-CH2CH2COOH)]D[Phe(3-Me)]V[Bip][Cit][Orn][dL][Dab][Cha]VTC[Dab]S[Aun]-OH; thioether N-14) | 7.47 |
| Cc1cccc(C[C@@H]2NC(=O)[C@H](CC(=O)O)NC(=O)[C@H](Cc3ccc(CCC(=O)O)cc3)NC(=O)[C@H](CN)NC(=O)CSC[C@@H](C(=O)N[C@@H](CCCN)C(=O)N[C@@H](CO)C(=O)NCCCCCCCCCCC(=O)O)NC(=O)[C@H]([C@@H](C)O)NC(=O)[C@H](C(C)C)NC(=O)[C@H](CC3CCCCC3)NC(=O)[C@H](CCN)NC(=O)[C@@H](CC(C)C)NC(=O)[C@H](CCCN)NC(=O)[C@H](CCCNC(N)=O)NC(=O)[C@H](Cc3ccc(-c4ccccc4)cc3)NC(=O)[C@H](C(C)C)NC2=O)c1 [Compound 2812] ({CH2CO}-[Dap][Phe(4-CH2CH2COOH)]D[Phe(3-Me)]V[Bip][Cit][Orn][dL][Dab][Cha]VTC[Orn]S[Aun]-OH; thioether N-14) | 7.62 |
| Cc1cccc(C[C@@H]2NC(=O)[C@H](CC(=O)O)NC(=O)[C@H](Cc3ccc(CCC(=O)O)cc3)NC(=O)[C@H](CCCNC(=N)N)NC(=O)CSC[C@@H](C(=O)N[C@@H](CCN)C(=O)N[C@@H](CO)C(=O)NCCCCCCCCCCC(=O)O)NC(=O)[C@H](CCC(=O)O)NC(=O)[C@H](C(C)C)NC(=O)[C@H](CC3CCCCC3)NC(=O)[C@H](CCN)NC(=O)[C@@H](CC(C)C)NC(=O)[C@H](CCN)NC(=O)[C@H](CCCNC(N)=O)NC(=O)[C@H](Cc3ccc(-c4ccccc4)cc3)NC(=O)[C@H](C(C)C)NC2=O)c1 [Compound 2813] ({CH2CO}-R[Phe(4-CH2CH2COOH)]D[Phe(3-Me)]V[Bip][Cit][Dab][dL][Dab][Cha]VEC[Dab]S[Aun]-OH; thioether N-14) | 6.74 |
